Measured values published in US20180289678A1, “PHARMACEUTICAL COMPOSITION, PHARMACEUTICAL DOSAGE FORM, PROCESS FOR THEIR PREPARATION, METHODS FOR TREATING AND USES THEREOF” (Boehringer Ingelheim International GmbH, priority 2009, published 2018).
Like-named read-outs stand apart in the source and are kept apart here.

Assay: Study .5: single dose study in healthy Japanese volunteers, pharmacokinetic parameters
Format: in vivo, human
Conditions: Study .5, fasted
Protocol: 5. Pharmacokinetic Parameters
The pharmacokinetic parameters of pharmaceutical compositions and pharmaceutical dosage forms are assessed in healthy volunteer and patient populations. In the studies shown below, the participants fasted on the day of sampling, unless as otherwise stated (see for example study .3). The active substance in the studies below is the compound (I.9), preferably in the crystalline form (I.9X), and the dose of active ingredient is indicated in mg.
For the quantification of plasma concentrations of the active ingredient, 2.7 mL of blood was collected and transferred into an EDTA (ethylendiaminetetraacetic acid)-anticoagulant blood drawing tube. The EDTA-anticoagulated blood samples were centrifuged immediately after collection. Centrifugation lasted for about 10 minutes (at about 2,000×gf to 4,000×gf) at 4-8° C. or within 30 minutes while stored on ice. Concentrations of active substance in EDTA human plasma samples were quantitated using a HPLC/MS/MS method. The assay method comprised a solid phase supported liquid-liquid extraction of human plasma coupled with HPLC/MS/MS determination of the extracted samples. The HPLC/MS/MS assay was validated for the range of 1.11 to 1110 nM in human plasma.
Study .5: Single dose study in a healthy volunteer population of N=48 (Japanese volunteers). Healthy volunteers were administered tablets as described in Example 11 (section Examples of formulations).
AUC0-inf:area under the concentration-time curve of the analyte in plasma over the time interval from 0 extrapolated to infinity.
Cmax: maximum concentration of the analyte in plasma.
Tmax: time from dosing to maximum concentration.

AUC0-inf Max (5 mg single dose): 1.31 µM·h | AUC0-inf Min (5 mg single dose): 1 µM·h | AUC0-inf,norm Max (5 mg single dose): 262 nmol·h/L/mg | AUC0-inf,norm Median (5 mg single dose): 230 nmol·h/L/mg | AUC0-inf,norm Min (5 mg single dose): 200 nmol·h/L/mg | AUC0-inf,norm gMean (5 mg single dose): 228 nmol·h/L/mg | Cmax,norm Max (5 mg single dose): 46 nmol/L/mg | Cmax,norm Median (5 mg single dose): 31 nmol/L/mg | Cmax,norm Min (5 mg single dose): 25 nmol/L/mg | Cmax,norm gMean (5 mg single dose): 32 nmol/L/mg | tmax Min (5 mg single dose): 0.750 h | Cmax (5 mg single dose, read-out: Cmax Max): 230 nM | Cmax (5 mg single dose, read-out: Cmax Min): 123 nM | AUC0-inf Max (10 mg single dose): 3.19 µM·h | AUC0-inf Min (10 mg single dose): 2.34 µM·h | AUC0-inf,norm Max (10 mg single dose): 319 nmol·h/L/mg | AUC0-inf,norm Median (10 mg single dose): 264 nmol·h/L/mg | AUC0-inf,norm Min (10 mg single dose): 234 nmol·h/L/mg | AUC0-inf,norm gMean (10 mg single dose): 266 nmol·h/L/mg | Cmax,norm Max (10 mg single dose): 45 nmol/L/mg | Cmax,norm Median (10 mg single dose): 40 nmol/L/mg | Cmax,norm Min (10 mg single dose): 24 nmol/L/mg | Cmax,norm gMean (10 mg single dose): 37 nmol/L/mg | tmax Max (10 mg single dose): 3.00 h | tmax Min (10 mg single dose): 1.00 h | Cmax (10 mg single dose, read-out: Cmax Max): 454 nM | Cmax (10 mg single dose, read-out: Cmax Min): 242 nM | AUC0-inf Max (25 mg single dose): 7.15 µM·h | AUC0-inf Min (25 mg single dose): 5.04 µM·h | AUC0-inf,norm Max (25 mg single dose): 286 nmol·h/L/mg | AUC0-inf,norm Median (25 mg single dose): 254 nmol·h/L/mg | AUC0-inf,norm Min (25 mg single dose): 202 nmol·h/L/mg | AUC0-inf,norm gMean (25 mg single dose): 245 nmol·h/L/mg | Cmax,norm Max (25 mg single dose): 32 nmol/L/mg | Cmax,norm Median (25 mg single dose): 26 nmol/L/mg | Cmax,norm Min (25 mg single dose): 24 nmol/L/mg | Cmax,norm gMean (25 mg single dose): 26 nmol/L/mg | tmax Max (25 mg single dose): 4.00 h | tmax Min (25 mg single dose): 1.00 h | Cmax (25 mg single dose, read-out: Cmax Max): 790 nM | Cmax (25 mg single dose, read-out: Cmax Min): 605 nM | AUC(0-inf) (human, plasma, oral, 5 mg, 5 mg single dose, read-out: AUC0-inf Mean): 1.14 µM·h | AUC(0-inf) (human, plasma, oral, 5 mg, 5 mg single dose, read-out: AUC0-inf Median): 1.15 µM·h | AUC(0-inf) (human, plasma, oral, 5 mg, 5 mg single dose, read-out: AUC0-inf gMean): 1.14 µM·h | Cmax (human, plasma, oral, 5 mg, 5 mg single dose, read-out: Cmax Mean): 166 nM | Cmax (human, plasma, oral, 5 mg, 5 mg single dose, read-out: Cmax Median): 153 nM | Cmax (human, plasma, oral, 5 mg, 5 mg single dose, read-out: Cmax gMean): 161 nM | Tmax (human, plasma, oral, 5 mg, 5 mg single dose, read-out: tmax Mean): 1.63 h | Tmax (human, plasma, oral, 5 mg, 5 mg single dose, read-out: tmax Median): 2 h | Tmax (human, plasma, oral, 5 mg, 5 mg single dose, read-out: tmax gMean): 1.51 h | AUC(0-inf) (human, plasma, oral, 10 mg, 10 mg single dose, read-out: AUC0-inf Mean): 2.67 µM·h | AUC(0-inf) (human, plasma, oral, 10 mg, 10 mg single dose, read-out: AUC0-inf Median): 2.64 µM·h | AUC(0-inf) (human, plasma, oral, 10 mg, 10 mg single dose, read-out: AUC0-inf gMean): 2.66 µM·h | Cmax (human, plasma, oral, 10 mg, 10 mg single dose, read-out: Cmax Mean): 379 nM | Cmax (human, plasma, oral, 10 mg, 10 mg single dose, read-out: Cmax Median): 398 nM | Cmax (human, plasma, oral, 10 mg, 10 mg single dose, read-out: Cmax gMean): 372 nM | Tmax (human, plasma, oral, 10 mg, 10 mg single dose, read-out: tmax Mean): 1.67 h | Tmax (human, plasma, oral, 10 mg, 10 mg single dose, read-out: tmax Median): 1.5 h | Tmax (human, plasma, oral, 10 mg, 10 mg single dose, read-out: tmax gMean): 1.54 h | AUC(0-inf) (human, plasma, oral, 25 mg, 25 mg single dose, read-out: AUC0-inf Mean): 6.18 µM·h | AUC(0-inf) (human, plasma, oral, 25 mg, 25 mg single dose, read-out: AUC0-inf Median): 6.34 µM·h | AUC(0-inf) (human, plasma, oral, 25 mg, 25 mg single dose, read-out: AUC0-inf gMean): 6.13 µM·h | Cmax (human, plasma, oral, 25 mg, 25 mg single dose, read-out: Cmax Mean): 661 nM | Cmax (human, plasma, oral, 25 mg, 25 mg single dose, read-out: Cmax Median): 643 nM | Cmax (human, plasma, oral, 25 mg, 25 mg single dose, read-out: Cmax gMean): 658 nM | Tmax (human, plasma, oral, 25 mg, 25 mg single dose, read-out: tmax Mean): 2.33 h | Tmax (human, plasma, oral, 25 mg, 25 mg single dose, read-out: tmax Median): 2 h | Tmax (human, plasma, oral, 25 mg, 25 mg single dose, read-out: tmax gMean): 2.14 h
Compound: OC[C@H]1O[C@@H](c2ccc(Cl)c(Cc3ccc(O[C@H]4CCOC4)cc3)c2)[C@H](O)[C@@H](O)[C@@H]1O [Compound (I.9), 1-chloro-4-(β-D-glucopyranos-1-yl)-2-[4-((S)-tetrahydrofuran-3-yloxy)-benzyl]-benzene]
